According to publication PMC9388906, “Dual inhibition of the Echinococcus multilocularis energy metabolism” (Frontiers in Veterinary Science, 2022):
Where two headings read alike, the source gives them in different places.

Experiments:
[1] = tested on: E. multilocularis metacestodes (isolate H95); assay: PGI assay (damage marker release), metacestodes, isolate H95; assay type: cell-based, Echinococcus multilocularis; conditions: for cytotoxicity at 10 µM: read-out: Metacestodes, PGI assay, relative to positive control Tx-100; for EC50: read-out: EC50 metacestodes
Method: (§1) To assess the in vitro efficacy of ELQs against E. multilocularis, (a) the damage-marker phosphoglucose isomerase (PGI) assay was applied against metacestodes, and (b) the germinal layer (GL) cell viability assay was applied to measure effects on isolated GL cells. Both assays are described in more detail below. The drug testing strategy was as follows: PGI assay was first conducted for overview screening at 10 μM with the parasite isolates H95 and Sval. The GL cell viability assay was performed at 0.1 μM with both isolates H95 and Sval.
(§2) The PGI assay measures the amount of PGI that metacestodes release into the medium when damaged ([17], [32]). The purification and in vitro drug incubation of E. multilocularis metacestodes was conducted according to Stadelmann et al. ([32]). In short, cultures were applied for in vitro drug testing at the age of 6-8 weeks. E. multilocularis metacestodes were therefore purified by the addition of 2% saccharose and washed extensively with PBS. Purified metacestodes were suspended 1:3 with DMEM (without phenol red, supplemented with 100 U/mL penicillin, 100 μg/mL streptomycin) and distributed in 48-well plates (1 mL/well, thus 300 μL pure metacestode vesicles per well). […] The corresponding DMSO concentration was used as negative control and Tx-100 (0.1% final concentration) was used for total damage (positive control). […] After 5 days, relative PGI activities were measured and calculated as percentage of the Tx-100 control as described previously in Rufener et al. ([17]). They were calculated as mean values and standard deviations for each triplicate. […] EC50 measurements were performed twice, and averages and standard deviations of these repeated tests are given.

[2] = tested on: E. multilocularis GL cells (isolate Sval); assay: GL cell viability assay (CellTiter-Glo), isolate Sval; assay type: cell-based, Echinococcus multilocularis; conditions: for viability at 0.1 µM: Echinococcus multilocularis, 120 h, read-out: GL cells, viability via ATP measurements, relative to DMSO control
Method: as §1
(§3) The isolation of E. multilocularis GL cells was done as described previously ([17]) with minor modifications. Fifteen units of GL cells were distributed to each well of a 384 well plate in a total volume of 12.5 μL conditioned medium. The different ELQs were added to the wells to 0.1 μM, in quadruplicates. As a negative control 0.1% DMSO was used. The 384-well plate was incubated for 5 days at 37°C under humid nitrogen atmosphere. Thereafter, viability of the GL cells under different drug treatments was assessed by CellTiter-Glo® (Promega AG, Dübendorf, Switzerland). The CellTiter-Glo reagent was complemented with 1% Tx-100. The luciferase bioluminescence was measured at 530 nm by using the Enspire multilabel reader (PerkinElmer Life Sciences, Schwerzenbach, Switzerland). Using Microsoft Excel, the blank values were subtracted from the experimental values and the relative viability compared to DMSO was calculated. Viabilities were calculated as mean values and standard deviations for each quadruplicate.

[3] = tested on: E. multilocularis GL cells (isolate H95); assay: GL cell viability assay (CellTiter-Glo), isolate H95; assay type: cell-based, Echinococcus multilocularis; conditions: for viability at 0.1 µM: Echinococcus multilocularis, 120 h, read-out: GL cells, viability via ATP measurements, relative to DMSO control
Method: as §1, §3

[4] = tested on: E. multilocularis metacestodes (isolate Sval); assay: PGI assay (damage marker release), metacestodes, isolate Sval; assay type: cell-based, Echinococcus multilocularis; conditions: for cytotoxicity at 10 µM: Echinococcus multilocularis, 120 h, read-out: Metacestodes, PGI assay, relative to positive control Tx-100; for Activity in PGI assay (activity call): threshold >20% of Tx-100
Method: as §1, §2

[5] = tested on: Reuber rat hepatoma (Rh) cells; assay: Mammalian cell toxicity, Alamar Blue assay; assay type: cell-based
Method: Compounds were added in a serial dilution (30–0.23 μM, 1:2 dilution steps) and in triplicates. Plates were incubated at 37°C, 5% CO2 and humid atmosphere for 5 days. Resazurin was added to a final concentration of 10 mg/L to each well, and fluorescence measured at 530 nm on an Enspire multilabel plate reader over 3 h. By using Microsoft Office Excel 2010 and a logit-log transformation of the relative growth, IC50 values were calculated. The test was performed twice for each compound, and respective averages and standard deviations are given.

[6] = tested on: E. multilocularis metacestodes; parameters: method as in PMID 30396011; conditions: TEM of metacestodes; cited from earlier work
[7] = tested on: E. multilocularis metacestodes; assay: PGI assay, single and combination treatment under normoxic and anaerobic conditions; assay type: cell-based, Echinococcus multilocularis; conditions: 10 μM each; 5 days; anaerobic (0% O2)
Method: The PGI assay measures the amount of PGI that metacestodes release into the medium when damaged ([17], [32]). The purification and in vitro drug incubation of E. multilocularis metacestodes was conducted according to Stadelmann et al. ([32]). In short, cultures were applied for in vitro drug testing at the age of 6-8 weeks. E. multilocularis metacestodes were therefore purified by the addition of 2% saccharose and washed extensively with PBS. Purified metacestodes were suspended 1:3 with DMEM (without phenol red, supplemented with 100 U/mL penicillin, 100 μg/mL streptomycin) and distributed in 48-well plates (1 mL/well, thus 300 μL pure metacestode vesicles per well). […] The corresponding DMSO concentration was used as negative control and Tx-100 (0.1% final concentration) was used for total damage (positive control). […] After 5 days, relative PGI activities were measured and calculated as percentage of the Tx-100 control as described previously in Rufener et al. ([17]). They were calculated as mean values and standard deviations for each triplicate. EC50 calculations were calculated based on logit-log transformed values in Microsoft Office Excel 2010. EC50 measurements were performed twice, and averages and standard deviations of these repeated tests are given.
For double inhibition of the mitochondrial energy pathways of E. multilocularis, quinazoline as an inhibitor of the anaerobic MD ([29]) was applied in combination with ELQ-400 as an inhibitor of the ETC. Both compounds were tested either alone or in combination at 10 μM with the above-described PGI assay for 5 days for their activity against E. multilocularis metacestodes. PGI assays were done in triplicates and two times independently. […] Results of the assays were calculated as mean values and standard deviations for each biological triplicate were calculated as relative percentage to the Tx-100 control. To assess direct effects on the MD, succinate levels were measured in the supernatants of the PGI assay, as described below. […]

[8] = tested on: E. multilocularis metacestodes; assay: Succinate concentrations in culture supernatants (malate dismutation activity); assay type: cell-based, Echinococcus multilocularis; conditions: 10 μM; 5 days; anaerobic
Method: Both compounds were tested either alone or in combination at 10 μM with the above-described PGI assay for 5 days for their activity against E. multilocularis metacestodes. PGI assays were done in triplicates and two times independently. […] To assess direct effects on the MD, succinate levels were measured in the supernatants of the PGI assay, as described below. To determine whether differences between groups were significant, data was subjected to student's t-test analysis and P-values below 0.05 are given.
Succinate measurements in supernatants of drug-treated E. multilocularis metacestodes was performed with the “Succinic Acid Assay Kit” (Megazyme, Bray, Ireland). […] 20 μL of each diluted (1:20) sample or standard was used in triplicate for succinate measurements in 96-well plates (flat bottom, Greiner Bio-One GmbH, Frickenhausen, Germany). The reaction mix buffer was prepared as described in the supplier manual: per well 180 μL H2O, 20 μL solvent 1 (buffer, pH 8.4, sodium azide 0.02% w/v), 20 μL solvent 2 (NADH plus stabilizer), 20 μL solvent 3 (ATP, PEP, and CoA) and 2 μL solvent 4 (pyruvate kinase plus L-lactate dehydrogenase suspension) were added. After a 180 s pre-incubation time, a first measurement at 340 nm was done on an EnSpire multilabel plate reader (PerkinElmer Life Sciences, Schwerzenbach, Switzerland). 10 μL solvent 5 (succinyl-CoA synthetase suspension; 1:10 diluted) were then added to each well and the plate was read at 340 nm for 1 h every minute. […] Succinate levels are shown as mean values with standard deviations of biological triplicates. To determine whether differences between groups were significant, data was subjected to student's t-test analysis and P-values below 0.05 are given.

[9] = Echinococcus multilocularis, 120 h, isolate H95, 10 μM, 5 days, normoxic, mean (SD) of triplicates, active if >20%
[10] = isolate Sval, 0.1 μM, 5 days, nitrogen atmosphere, mean (SD), active if <30%
[11] = isolate H95, 0.1 μM, 5 days, nitrogen atmosphere, mean (SD), active if <30%
[12] = isolate Sval, 10 μM, 5 days, normoxic, mean (SD) of triplicates, active if >20%
[13] = Echinococcus multilocularis, 120 h
[14] = Rattus norvegicus, 120 h, confluent Rh cells, Alamar blue, 5 days, range tested 30–0.23 μM, mean (SD) of two tests, read-out: IC50 Rh confluent
[15] = Rattus norvegicus, 120 h, preconfluent Rh cells, Alamar blue, 5 days, range tested 30–0.23 μM, mean (SD) of two tests, read-out: IC50 Rh preconfluent
[16] = Echinococcus multilocularis, 120 h, isolate H95, PGI assay, 5 days, range tested 30–0.12 μM, mean (SD) of two tests
[17] = isolate H95, 10 μM, 5 days, normoxic, mean (SD) of triplicates, active if >20%

CCCCCCCc1c(C)[nH]c2cc(OC)ccc2c1=O [ELQ-100]
cytotoxicity at 10 µM [1, 9]: 1.4% | viability at 0.1 µM [2, 10]: 57.9% | viability at 0.1 µM [3, 11]: 100% | cytotoxicity at 10 µM [4, 12]: 0%

CCCCCCCc1c(C)[nH]c2cc(F)cc(F)c2c1=O [ELQ-121]
IC50 ([5]; Rattus norvegicus, 120 h, read-out: IC50 Rh confluent): > 30 µM | IC50 ([5]; Rattus norvegicus, 120 h, read-out: IC50 Rh preconfluent): > 30 µM | EC50 [1, 13]: 1.19 µM | cytotoxicity at 10 µM [1, 13]: 15.2% | viability at 0.1 µM [2]: 7.3% | viability at 0.1 µM [3]: 1% | cytotoxicity at 10 µM [4]: 20.9% | Activity in PGI assay (activity call) ([4]; isolate Sval, 10 μM): activity

CCCCCCCc1c(C)[nH]c2ccccc2c1=O [ELQ-127]
cytotoxicity at 10 µM [1, 9]: 11.7% | viability at 0.1 µM [2, 10]: 40.4% | viability at 0.1 µM [3, 11]: 17.2% | cytotoxicity at 10 µM [4, 12]: 2.5%

CCCCCCCc1c(C)[nH]c2cccc(F)c2c1=O [ELQ-136]
IC50 [5, 14]: > 30 µM | IC50 [5, 15]: > 30 µM | cytotoxicity at 10 µM [1, 9]: 21.4% | EC50 [1, 16]: 0.22 µM | viability at 0.1 µM [2, 10]: 15.1% | viability at 0.1 µM [3, 11]: 8.4% | cytotoxicity at 10 µM [4, 12]: 7%

Cc1[nH]c2ccccc2c(=O)c1-c1ccc(Oc2ccc(OC(F)(F)F)cc2)cc1 [ELQ-271]
IC50 ([5]; confluent Rh cells, Alamar blue, 5 days, range tested 30–0.23 μM, mean (SD) of two tests, read-out: IC50 Rh confluent): > 30 µM | IC50 ([5]; preconfluent Rh cells, Alamar blue, 5 days, range tested 30–0.23 μM, mean (SD) of two tests, read-out: IC50 Rh preconfluent): 8.64 µM | Metacestodes, PGI assay, relative to positive control Tx-100 [1, 17]: 33 (1.7) % | EC50 ([1]; isolate H95, PGI assay, 5 days, range tested 30–0.12 μM, mean (SD) of two tests): 0.24 µM | GL cells, viability via ATP measurements, relative to DMSO control [2, 10]: 25.4 (7.2) % | GL cells, viability via ATP measurements, relative to DMSO control [3, 11]: 2.7 (1.6) % | Metacestodes, PGI assay, relative to positive control Tx-100 [4, 12]: 56.9 (4.3) % | Activity in PGI assay (activity call) ([4]; isolate Sval, 10 μM): activity

COc1cc2[nH]c(C)c(-c3ccc(Oc4ccc(OC(F)(F)F)cc4)cc3)c(=O)c2cc1Cl [ELQ-300]
Metacestodes, PGI assay, relative to positive control Tx-100 [1, 17]: 6.6 (2.2) % | GL cells, viability via ATP measurements, relative to DMSO control [2, 10]: 46.9 (9.6) % | GL cells, viability via ATP measurements, relative to DMSO control [3, 11]: 84.0 (7.0) % | Metacestodes, PGI assay, relative to positive control Tx-100 [4, 12]: 7.6 (1.1) %

COc1cc2[nH]c(C)c(-c3ccc(Oc4ccc(OC(F)(F)F)cc4)cc3)c(=O)c2cc1F [ELQ-316]
Metacestodes, PGI assay, relative to positive control Tx-100 [1, 17]: 21.4 (0.1) % | GL cells, viability via ATP measurements, relative to DMSO control [2, 10]: 58 (5.3) % | GL cells, viability via ATP measurements, relative to DMSO control [3, 11]: 81.1 (9.5) % | Metacestodes, PGI assay, relative to positive control Tx-100 [4, 12]: 4.6 (1.3) %

CCCCCCCc1c(C)[nH]c2cc(OC)c(F)cc2c1=O [ELQ-433]
cytotoxicity at 10 µM [1, 9]: 4.3% | viability at 0.1 µM [2, 10]: 62.1% | viability at 0.1 µM [3, 11]: 96.4% | cytotoxicity at 10 µM [4, 12]: 1.8%

CCCCCCCCCCCc1c(C)[nH]c2cc(OC)c(Cl)cc2c1=O [ELQ-434]
cytotoxicity at 10 µM [1, 9]: 0.4% | viability at 0.1 µM [2, 10]: 81.3% | viability at 0.1 µM [3, 11]: 33.3% | cytotoxicity at 10 µM [4, 12]: 0.6%

CCCCCCCCCCCc1c(C)[nH]c2cc(OC)c(F)cc2c1=O [ELQ-435]
cytotoxicity at 10 µM [1, 9]: 2.6% | viability at 0.1 µM [2, 10]: 80.1% | viability at 0.1 µM [3, 11]: 15.6% | cytotoxicity at 10 µM [4, 12]: 0%

CCCCCCCCCCCc1c(C)[nH]c2ccccc2c1=O [ELQ-436]
cytotoxicity at 10 µM [1, 9]: 3.4% | viability at 0.1 µM [2, 10]: 16.4% | viability at 0.1 µM [3, 11]: 14% | cytotoxicity at 10 µM [4, 12]: 3.1%

CCCCCCCCCCCc1c(C)[nH]c2cc(F)cc(F)c2c1=O [ELQ-437]
IC50 [5, 14]: > 30 µM | IC50 [5, 15]: > 30 µM | cytotoxicity at 10 µM [1, 9]: 37.6% | EC50 [1, 16]: 1.71 µM | viability at 0.1 µM [2, 10]: 19.1% | viability at 0.1 µM [3, 11]: 19.7% | cytotoxicity at 10 µM [4, 12]: 33.1% | Activity in PGI assay (activity call) ([4]; isolate Sval, 10 μM): activity

CC(C)(C)[C@H]1CC[C@H](CC2=C(O)C(=O)c3ccccc3C2=O)CC1 [buparvaquone]
Concentration already affecting the parasite ultrastructure (electron dense mitochondrial matrix) [6]: 0.3 µM

c1ccc2ncncc2c1 [quinazoline, reference compound]
PGI release of metacestodes relative to Tx-100 [7]: no PGI release | Release of succinate by metacestodes compared to DMSO control [8]: significant reduction
